# Laboratory results reported in publication PMC7927096, “Dipeptides of S-Substituted Dehydrocysteine as Artzyme Building Blocks: Synthesis, Complexing Abilities and Antiproliferative Properties” (International Journal of Molecular Sciences, 2021).
# Structures can show the parent of a compound that is named as a salt. Where two headings read alike, the source gives them in different places.
# Assays:
# [1] = tested on: Balb/3T3 (non-tumorigenic murine fibroblasts); assay: Antiproliferative activity, sulforhodamine B assay; type: cell-based; settings: SRB, 72 h incubation, non-tumorigenic line, read-out: IC50 ± SD, Balb/3T3
# Text: (§1) Ten different human cancer cell lines (including drug-resistant sublines) and one non-tumorigenic murine fibroblasts cell line were used to determine antiproliferative activity of the tested compounds. The MDA-MB-231 (breast adenocarcinoma), UM-UC-3 (urinary bladder transitional cell carcinoma), LoVo (colorectal adenocarcinoma), LoVo^Dx (colorectal adenocarcinoma, doxorubicin-resistant) and Balb/3T3 (non-tumorigenic murine fibroblasts) were purchased from the American Type Culture Collection (ATCC; Rockville, USA). The MCF-7 (breast adenocarcinoma) and A549 (lung carcinoma) were purchased from European Collection of Authenticated Cell Cultures (ECACC; Porton Down, UK). The UM-UC-3^CDDP, UM-UC-3^GEM, UM-UC-3^VBL, and UM-UC-3^CDDP/GEM cell lines were established at Hirszfeld Institute of Immunology and Experimental Therapy of the Polish Academy of Sciences (HIIET, PAS, Wroclaw, Poland) by the continuous exposure to the increasing concentrations of corresponding cytostatics.
# (§2) The Balb/3T3 and UM-UC-3 were cultured in Dulbecco’s Modified Eagle Medium (DMEM; Life Technologies, UK) supplemented with 10% (v/v) fetal bovine serum (FBS; GE Healthcare HyClone, Logan, USA) and 2 mM L-glutamine (Sigma-Aldrich, Poznań, Poland). The UM-UC-3^CDDP, UM-UC-3^GEM, UM-UC-^3VBL, and UM-UC-3^CDDP/GEM culture media were additionally supplemented with appropriate cytostatics: 2.5 µg/mL cisplatin (Accord, Warsaw, Poland) for UM-UC-3^CDDP, 500 nM gemcitabine (Sigma-Aldrich, Poznań, Poland) for UM-UC-3^GEM, 5 nM vinblastine (Sigma-Aldrich, Poznań, Poland) for UM-UC-3VBL, 2.5 µg/mL cisplatin and 500 nM gemcitabine for UM-UC-3^CDDP/GEM. The LoVo cell line was cultured in F-12K Nutrient Mixture (F-12K; Corning, Corning, USA), supplemented with 10% (v/v) FBS. LoVo^Dx culture medium was additionally supplemented with doxorubicin 100 ng/mL (Accord, Warsaw, Poland). The MCF-7 cell line was cultured in Eagle’s medium (HIIET, PAS, Wroclaw, Poland), supplemented with 10% (v/v) FBS (Sigma-Aldrich, Poznań, Poland), 2 mM L-glutamine, MEM non-essential amino acid solution 1% (v/v) (Sigma-Aldrich, Poznań, Poland), insulin 8 µg/mL (Sigma-Aldrich, Poznań, Poland). The MDA-MB-231 cell line was cultured in RPMI 1640 (HIIET, PAS, Wroclaw, Poland), supplemented with 10% (v/v) FBS (Sigma-Aldrich, Poznań, Poland) and 2 mM L-glutamine. The A 549 cell line was cultured in OptiMEM (HIIET, PAS, Wroclaw, Poland), supplemented with 5% (v/v) FBS (GE Healthcare HyClone, Logan, USA) and 2 mM L-glutamine. All culture media were supplemented with antibiotics—100 μg/mL streptomycin (Polfa Tarchomin, Warsaw, Poland) and 100 U/mL penicillin (Sigma-Aldrich, Poznań, Poland).
# (§3) All cell lines were cultured in a humidified atmosphere at 37 °C with 5% (v/v) CO2 and passaged twice a week using EDTA-Trypsin solution (pH 8; HIIET, Wroclaw, Poland) as a detachment agent.
# (§4) All compounds, for antiproliferative activity assessment, were stored at […] as 50 mM solutions in dimethyl sulfoxide (DMSO; Avantor Performance Materials, Gliwice, Poland).
# (§5) The cells were seeded on 384-well plates (Greiner Bio One, Kremsmünster, Austria) at 1 × 10^3 cells/well density for A 549, UM-UC-3, UM-UC-3^CDDP, UM-UC-3^GEM, UM-UC-3^CVBL and UM-UC-3^CDDP/GEM cell lines. Other cell lines were seeded at 2 × 10^3 cells/well. After overnight incubation, compounds were applied at eight concentrations (ranging from 100 µM to 0.03 µM). After 72 h incubation, the sulforhodamine B (SRB) assay based on Skehan et al. was carried out with slight modifications. In brief, 50 µL of the medium was replaced with 30 µL/well of 25% (w/v) trichloroacetic acid (Avantor Performance Materials, Gliwice, Poland). After 1 h incubation at room temperature, plates were washed three times with tap water, and 20 µL of 0.1% (w/v) solution of sulforhodamine B (Sigma-Aldrich, Poznan, Poland) in 1% (v/v) acetic acid (Avantor Performance Materials, Gliwice, Poland) was added to each well. […]
# [2] = tested on: ten diverse human cancer cells lines and murine non-tumorigenic cell line (Balb/3T3); assay: Antiproliferative screen, whole cell line panel (statements in words); type: cell-based; settings: SRB; for antiproliferative activity (in words): across cell lines; for activity against resistant versus parent cell lines (in words): 10d: with exception of the line resistant to gemcitabine
# Text: as §1, §2, §3, §4, §5
# [3] = tested on: MCF-7 (breast adenocarcinoma); assay: Antiproliferative activity, sulforhodamine B assay; type: cell-based, human; settings: SRB, 72 h incubation, read-out: IC50 ± SD, MCF-7
# Text: as §1, §2, §3, §4, §5
# [4] = tested on: UM-UC-3^CDDP/GEM (resistant to cisplatin and gemcitabine); assay: Antiproliferative activity, sulforhodamine B assay; type: cell-based, human; settings: SRB, 72 h incubation, read-out: IC50 ± SD, UM-UC-3^CDDP/GEM
# Text: as §1, §2, §3, §4, §5
# A549 (lung carcinoma) = assay: Antiproliferative activity, sulforhodamine B assay; type: cell-based, human; settings: SRB, 72 h incubation, read-out: IC50 ± SD, A-549
# Text: as §1, §2, §3, §4, §5
# [5] = tested on: UM-UC-3 (urinary bladder transitional cell carcinoma); assay: Antiproliferative activity, sulforhodamine B assay; type: cell-based, human; settings: SRB, 72 h incubation, read-out: IC50 ± SD, UM-UC-3
# Text: as §1, §2, §3, §4, §5
# [6] = tested on: UM-UC-3^VBL (vinblastine-resistant); assay: Antiproliferative activity, sulforhodamine B assay; type: cell-based, human; settings: SRB, 72 h incubation, read-out: IC50 ± SD, UM-UC-3^VBL
# Text: as §1, §2, §3, §4, §5
# [7] = tested on: MDA-MB-231 (breast adenocarcinoma); assay: Antiproliferative activity, sulforhodamine B assay; type: cell-based, human; settings: SRB, 72 h incubation, read-out: IC50 ± SD, MDA-MB-231
# Text: as §1, §2, §3, §4, §5
# [8] = tested on: UM-UC-3^CDDP (cisplatin-resistant); assay: Antiproliferative activity, sulforhodamine B assay; type: cell-based, human; settings: SRB, 72 h incubation, read-out: IC50 ± SD, UM-UC-3^CDDP
# Text: as §1, §2, §3, §4, §5
# [9] = tested on: LoVo (colorectal adenocarcinoma); assay: Antiproliferative activity, sulforhodamine B assay; type: cell-based, human; settings: SRB, 72 h incubation, read-out: IC50 ± SD, LoVo
# Text: as §1, §2, §3, §4, §5
# [10] = tested on: LoVo^DX (colorectal adenocarcinoma, doxorubicin-resistant); assay: Antiproliferative activity, sulforhodamine B assay; type: cell-based, human; settings: SRB, 72 h incubation, read-out: IC50 ± SD, LoVo^DX
# Text: as §1, §2, §3, §4, §5
# [11] = tested on: UM-UC-3^GEM (gemcitabine-resistant); assay: Antiproliferative activity, sulforhodamine B assay; type: cell-based, human; settings: SRB, 72 h incubation, read-out: IC50 ± SD, UM-UC-3^GEM
# Text: as §1, §2, §3, §4, §5
# [12] = set-up: method as in PMID 12031802; settings: Cu(II) complex; cited from earlier work
"IC50 ([3]; Homo sapiens, MCF7)","IC50 (A549 (lung carcinoma); Homo sapiens, A549)","IC50 ([5]; Homo sapiens, UMUC3)","IC50 ([7]; Homo sapiens, MDA-MB-231)","IC50 ([9]; Homo sapiens, LoVo)","IC50 ([10]; Homo sapiens, LoVo/DX)",Compound,"IC50 ([1]; Mus musculus, BALB/3T3)",antiproliferative activity (in words) [2],activity against resistant versus parent cell lines (in words) [2],IC50 ([4]; Homo sapiens),IC50 ([6]; Homo sapiens),IC50 ([8]; Homo sapiens),IC50 ([11]; Homo sapiens),also measured
22 ± 4.5 µM,14 ± 5.6 µM,30.5 ± 3.7 µM,24.4 ± 3 µM,70.3 ± 21.5 µM,33.1 ± 9 µM,"COC(=O)/C(=C/Sc1nc2ccccc2s1)NC(=O)[C@@H](N)Cc1ccccc1 [Compound 10d, HCl Phe-ΔCys(S-benzothiazole)-OMe]",42.2 ± 9.3 µM,–,more effective against resistant cell lines,25.3 ± 8 µM,9.4 ± 2.2 µM,16.6 ± 2.5 µM,67.8 ± 9.6 µM,–
6.8 ± 0.5 µM,6.6 ± 1.4 µM,6.7 ± 1.4 µM,10.8 ± 0.4 µM,9.6 ± 0.9 µM,8.6 ± 0.9 µM,"COC(=O)/C(=C/Sc1nc2ccccc2s1)NC(=O)[C@H](Cc1ccccc1)NC(=O)OC(C)(C)C [Compound 7d, Boc-Phe-ΔCys(S-benzothiazole)-OMe]",3.1 ± 0.6 µM,most potent representatives,equipotential towards both resistant and parent cell lines,9.1 ± 1.2 µM,6.3 ± 1 µM,11.2 ± 1.5 µM,8 ± 2.3 µM,–
4.5 ± 0.4 µM,4 ± 1.1 µM,6.2 ± 0.8 µM,7.1 ± 0.8 µM,6.3 ± 0.5 µM,4.5 ± 0.4 µM,"COC(=O)/C(=C/Sc1nc2cc(OC)ccc2o1)NC(=O)[C@H](Cc1ccccc1)NC(=O)OC(C)(C)C [Compound 7c, Boc-Phe-ΔCys(S-5-methoxybenzoxazole)-OMe]",5.3 ± 0.4 µM,most potent representatives,equipotential towards both resistant and parent cell lines,5.9 ± 0.4 µM,5.8 ± 0.6 µM,6.8 ± 0.8 µM,7 ± 0.5 µM,–
74.5 ± 5.8 µM,60.7 ± 12.1 µM,56 ± 5.7 µM,53.3 ± 5.5 µM,75.8 ± 6.5 µM,> 100 µM,"COC(=O)/C(=C/Sc1nc[nH]n1)NC(=O)[C@H](Cc1ccccc1)NC(=O)OC(C)(C)C [Compound 7a, Boc-Phe-ΔCys(S-triazole)-OMe]",19.7 ± 1.9 µM,"markedly lower, if any, activity",–,62.2 ± 5.3 µM,54.9 ± 3.5 µM,67.7 ± 3.9 µM,65.2 ± 4.9 µM,–
15.5 ± 2.5 µM,12 ± 4 µM,13.5 ± 4.5 µM,15.2 ± 4.4 µM,16.4 ± 1.7 µM,23 ± 2.2 µM,"COC(=O)/C(=C/Sc1nc(-c2ccccc2)c[nH]1)NC(=O)[C@H](Cc1ccccc1)NC(=O)OC(C)(C)C [Compound 7b, Boc-Phe-ΔCys(S-4-phenylimidazole)-OMe]",7.6 ± 0.9 µM,–,–,17.2 ± 2.1 µM,17.3 ± 1.7 µM,19 ± 3.2 µM,19.9 ± 3.3 µM,–

# The remaining lines, values behind:
Compound,"IC50 ([3]; Homo sapiens, MCF7)","IC50 (A549 (lung carcinoma); Homo sapiens, A549)","IC50 ([5]; Homo sapiens, UMUC3)","IC50 ([7]; Homo sapiens, MDA-MB-231)","IC50 ([9]; Homo sapiens, LoVo)","IC50 ([10]; Homo sapiens, LoVo/DX)","IC50 ([1]; Mus musculus, BALB/3T3)",antiproliferative activity (in words) [2],activity against resistant versus parent cell lines (in words) [2],IC50 ([4]; Homo sapiens),IC50 ([6]; Homo sapiens),IC50 ([8]; Homo sapiens),IC50 ([11]; Homo sapiens),also measured
"COC(=O)/C(=C/Sc1nc2cc(OC)ccc2o1)NC(=O)CNC(=O)OC(C)(C)C [Compound 6c, Boc-Gly-ΔCys(S-5-methoxybenzoxazole)-OMe]",5.3 ± 0.9 µM,6.2 ± 1.4 µM,7.2 ± 0.6 µM,5 ± 0.8 µM,8.7 ± 1.1 µM,6.4 ± 0.4 µM,5.3 ± 1.2 µM,most potent representatives,equipotential towards both resistant and parent cell lines,8.6 ± 1.4 µM,6 ± 1.5 µM,7.8 ± 0.7 µM,5.2 ± 0.6 µM,–
NCC(=O)N/C(=C\c1ccccc1)C(=O)O [Gly(Z)ΔPhe],–,–,–,–,–,–,–,–,–,–,–,–,–,"logβ of the analogous species with {N-NH2, Namide} binding mode [12]: 2.19"
"COC(=O)/C(=C/Sc1nc2ccccc2s1)NC(=O)CNC(=O)OC(C)(C)C [Compound 6d, Boc-Gly-ΔCys(S-benzothiazole)-OMe]",4.5 ± 0.5 µM,5.6 ± 0.9 µM,4.6 ± 0.4 µM,6.1 ± 0.6 µM,6.7 ± 0.7 µM,6.2 ± 0.6 µM,5.8 ± 0.9 µM,most potent representatives,equipotential towards both resistant and parent cell lines,6.2 ± 0.8 µM,4.9 ± 0.8 µM,6.4 ± 0.4 µM,4.6 ± 0.5 µM,–
"[NH2][Pt]([NH2])([Cl])[Cl] [CDDP, cisplatin, reference compound]",–,–,–,–,–,–,–,–,–,–,–,–,–,IC50 [1]: 10.2 ± 4.8 µM; IC50 [3]: 6 ± 2.2 µM; IC50 [4]: 25.1 ± 1.9 µM; IC50 (A549 (lung carcinoma)): 2.7 ± 1 µM; IC50 [5]: 2.4 ± 0.6 µM; IC50 [6]: 2.3 ± 0.3 µM; IC50 [7]: 24.4 ± 4.8 µM; IC50 [8]: 26.1 ± 1.8 µM; IC50 [9]: 4.4 ± 0.3 µM; IC50 [10]: 3.4 ± 0.2 µM; IC50 [11]: 2.6 ± 0.2 µM
